Values quoted from earlier work as cited in patent publication US20060153925A1, “Novel solid pharmaceutical composition comprising amisulpride” (Sanofi-Aventis, priority 2003, published 2006).

Settings: administered orally; attributed to partial gastrointestinal absorption

bioavailability: about 48%
SMILES: CCN1CCCC1CNC(=O)c1cc(S(=O)(=O)CC)c(N)cc1OC (racemic) [amisulpride, 4-amino-N-[(1-ethyl-2-pyrrolidin-yl)methyl]-5-(ethylsulfonyl)-2-methoxybenzamide]
